According to paper PMC6073580, “DPIE [2-(1,2-diphenyl-1H-indol-3-yl)ethanamine] Augments Pro-Inflammatory Cytokine Production in IL-1β-Stimulated Primary Human Oral Cells” (International Journal of Molecular Sciences, 2018):

Target: T1, IL-1R1 (interleukin-1 receptor, type I) (Homo sapiens, UniProt P14778)
T1 construct: gene IL1R1
T1 sequence (P14778 18-569): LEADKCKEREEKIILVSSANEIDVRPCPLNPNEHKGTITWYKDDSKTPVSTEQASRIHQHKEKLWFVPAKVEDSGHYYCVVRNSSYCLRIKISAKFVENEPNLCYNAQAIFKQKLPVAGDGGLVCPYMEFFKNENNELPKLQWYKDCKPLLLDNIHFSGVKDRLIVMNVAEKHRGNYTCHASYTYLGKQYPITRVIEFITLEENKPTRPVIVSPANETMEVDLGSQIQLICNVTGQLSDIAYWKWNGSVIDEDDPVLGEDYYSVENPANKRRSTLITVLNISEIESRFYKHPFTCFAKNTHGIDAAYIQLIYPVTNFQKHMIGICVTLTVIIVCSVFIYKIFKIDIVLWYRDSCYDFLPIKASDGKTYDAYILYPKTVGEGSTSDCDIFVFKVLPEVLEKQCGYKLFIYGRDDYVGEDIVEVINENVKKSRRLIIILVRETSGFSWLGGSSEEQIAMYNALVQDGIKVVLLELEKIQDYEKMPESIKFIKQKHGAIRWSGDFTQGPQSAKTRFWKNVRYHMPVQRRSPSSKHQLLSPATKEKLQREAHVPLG
Test: SPR (ProteOn XPR36), IL-1R1 immobilized by amine coupling, […] Langmuir kinetic fit; equilibrium analysis gave […]
Format: binding

Kd: 316 µM
Compound: NCCc1c(-c2ccccc2)n(-c2ccccc2)c2ccccc12 [DPIE, 2-(1,2-diphenyl-1H-indol-3-yl)ethanamine]
